Results published in paper PMC9157788, “Design, Synthesis, and Apoptosis-Promoting Effect Evaluation of Rhopaladins’ Analog 4-Arylidene-5-Oxopyrrolidine Derivatives” (Frontiers in Chemistry, 2022).
Read-outs that look alike come from different tables or passages of the source.

Legend:
C-33A cells [1] = tested on: C-33A cells; set-up: method as in Kong et al., 2021; conditions: MTT, ref Kong et al., 2021, read-out: Half inhibitory concentration (IC50), C-33A; cited from earlier work
CaSki cells [2] = tested on: CaSki cells; set-up: method as in Kong et al., 2021; conditions: MTT, ref Kong et al., 2021, read-out: Half inhibitory concentration (IC50), CaSki; cited from earlier work
SiHa cells [3] = tested on: SiHa cells; set-up: method as in Kong et al., 2021; conditions: MTT, ref Kong et al., 2021, read-out: Half inhibitory concentration (IC50), SiHa; cited from earlier work
HeLa cells [4] = tested on: HeLa cells; set-up: method as in Kong et al., 2021; conditions: MTT, ref Kong et al., 2021, read-out: Half inhibitory concentration (IC50), HeLa; cited from earlier work
HepG2 cells [5] = tested on: HepG2 cells; set-up: method as in Kong et al., 2021; conditions: MTT, ref Kong et al., 2021, read-out: Half inhibitory concentration (IC50), HepG2; cited from earlier work
7402 cells [6] = tested on: 7402 cells; set-up: method as in Kong et al., 2021; conditions: MTT, ref Kong et al., 2021, read-out: Half inhibitory concentration (IC50), 7402; cited from earlier work
LO2 cells [7] = tested on: LO2 cells; set-up: method as in Kong et al., 2021; conditions: normal liver LO2 cells, MTT; ref Kong et al., 2021; read-out: Half inhibitory concentration (IC50), LO2; cited from earlier work
C-33A cells [8] = assay: MTT cell viability assay, C-33A; type: cell-based; conditions: Homo sapiens, 48 h, read-out: Half inhibitory concentration (IC50), C-33A
Experimental: (§1) HepG2 (human epidermoid hepatocellular carcinoma cell), 7402 (human epidermoid hepatocellular carcinoma cell), C-33A (human epidermoid cervical carcinoma cell), and HeLa (human epidermoid cervical adenocarcinoma cell) were incubated in Dulbecco’s modified Eagle’s medium (DMEM), which was purchased from Gibco (Grand Island, NY, United States). SiHa cells (human epidermoid cervical squamous cell carcinoma) were incubated in minimum essential medium (MEM, also from Gibco). CaSki (human epidermoid cervical carcinoma cell) and LO2 (human normal liver cell) were incubated in minimum essential medium (MEM, also from Gibco). All cells were maintained at 37°C in a humidified incubator with 5% carbon dioxide, and the media contained 10% fetal bovine serum (FBS, Corning, United States) and 1% penicillin–streptomycin antibiotic solution (Corning, United States). SiHa and CaSki were bought from the China Center for Type Culture Collection (CCTCC). The other five types of cancer cell lines were obtained from the Experiment Center of Medicine, Sinopharm Dongfeng Hospital, Hubei University of Medicine. The compounds were dissolved in dimethyl sulfoxide (DMSO, MP Biomedicals, United States), and cisplatin was purchased from Aladdin, Shanghai, China. The control (0 μM) group was treated with DMSO only in the same conditions, and the DMSO content in the medium was less than 0.1%.
(§2) Cell viability was measured by a 3-(4,5-dimethylthiazol-2-yl)-2,5-diphenyltetrazolium bromide (MTT, MultiSciences, China) assay. The specific experimental steps referred to our previous research ([Zhu et al., 2020]). For each cell line, cells were digested and seeded in 96-well plates at a density of 1 × 10^3 cells/well. […] Then, the formed formazan crystals were dissolved in DMSO, and the plates were estimated in a […] microplate reader (BioTek Inc., Bio-Tek MQX200) at a wavelength of 490 nm. Optical density (OD) values were obtained, and the inhibition rate and IC50 of each compound on different cells were calculated by GraphPad Prism 8.0.1 software. […]

CaSki cells [9] = assay: MTT cell viability assay, CaSki; type: cell-based; conditions: Homo sapiens, Ca-Ski, 48 h, read-out: Half inhibitory concentration (IC50), CaSki
Experimental: as §1, §2

SiHa cells [10] = assay: MTT cell viability assay, SiHa; type: cell-based; conditions: Homo sapiens, 48 h, read-out: Half inhibitory concentration (IC50), SiHa
Experimental: as §1, §2

HeLa cells [11] = assay: MTT cell viability assay, HeLa; type: cell-based; conditions: Homo sapiens, 48 h, read-out: Half inhibitory concentration (IC50), HeLa
Experimental: as §1, §2

HepG2 cells [12] = assay: MTT cell viability assay, HepG2; type: cell-based; conditions: Homo sapiens, 48 h, read-out: Half inhibitory concentration (IC50), HepG2
Experimental: as §1, §2

7402 cells [13] = assay: MTT cell viability assay, 7402; type: cell-based; conditions: Homo sapiens, 48 h, read-out: Half inhibitory concentration (IC50), 7402
Experimental: as §1, §2

LO2 cells [14] = assay: MTT cell viability assay, normal liver LO2; type: cell-based, human; conditions: Homo sapiens, L02, normal liver LO2 cells, 48 h, read-out: Half inhibitory concentration (IC50), LO2
Experimental: as §1
Cell viability was measured by a 3-(4,5-dimethylthiazol-2-yl)-2,5-diphenyltetrazolium bromide (MTT, MultiSciences, China) assay. The specific experimental steps referred to our previous research ([Zhu et al., 2020]). For each cell line, cells were digested and seeded in 96-well plates at a density of 1 × 10^3 cells/well. After 24 h of culture, the cells were adherent and treated with varying concentrations of RPDPRH (0, 3.125, 6.25, 12.5, 25, 50, and 100 μM). Cells without treatment were used as a solvent control group (0 μM, DMSO) and those with cisplatin treatment served as a positive control. After 48 h of treatment, MTT solution was added and incubated for 4 h. Then, the formed formazan crystals were dissolved in DMSO, and the plates were estimated in a […] microplate reader (BioTek Inc., Bio-Tek MQX200) at a wavelength of 490 nm. Optical density (OD) values were obtained, and the inhibition rate and IC50 of each compound on different cells were calculated by GraphPad Prism 8.0.1 software. Cell inhibition rate (%) = 1− [(OD experimental-OD blank)/(OD control-OD blank)] × 100%.

| IC50 (HeLa cells [11]) [µM] | IC50 (HepG2 cells [12]) [µM] | melting point [°C] | SMILES | IC50 (C-33A cells [1]) [µM] | IC50 (CaSki cells [2]) [µM] | IC50 (SiHa cells [3]) [µM] | IC50 (HeLa cells [4]) [µM] | IC50 (HepG2 cells [5]) [µM] | IC50 (7402 cells [6]) [µM] | IC50 (LO2 cells [7]) [µM] | IC50 (C-33A cells [8]) [µM] | IC50 (CaSki cells [9]) [µM] | IC50 (SiHa cells [10]) [µM] | IC50 (7402 cells [13]) [µM] | IC50 (LO2 cells [14]) [µM] |
| --- | --- | --- | --- | --- | --- | --- | --- | --- | --- | --- | --- | --- | --- | --- | --- |
|  |  |  | N.N.[Cl][Pt][Cl] [Cisplatin, cisplatin, reference compound] | 48.2 | 17.5 | 37.1 | 47.5 | 19.3 | 48.5 | 17.3 |  |  |  |  |  |
| > 100 | > 100 | 209 to 210 | O=C1/C(=C/c2ccccc2)CC(/C=C/c2ccccc2)(C(=O)NC2CCCCC2)N1c1ccc(Cl)cc1 (stereo not drawn) [RPDPRI, (2E, 4E)-4-benzylidene-1-(4-chlorophenyl)-N-cyclohexyl-5-oxo-2-styrylpyrrolidine-2-carboxamide] |  |  |  |  |  |  |  | > 100 | > 100 | > 100 | > 100 | > 100 |
| 44.7 | > 100 |  | O=C1/C(=C/c2ccc(Cl)cc2)CC(/C=C/c2ccccc2)(C(=O)NC2CCCCC2)N1c1ccc(Cl)cc1 (stereo not drawn) [RPDPRK, (2E, 4E)-4-(4-chlorobenzylidene)-1-(4-chlorophenyl)-N-cyclohexyl-5-oxo-2-styryl pyrrolidine-2-carboxamide] |  |  |  |  |  |  |  | 89.5 | 46.4 | 67.3 | > 100 | > 100 |
|  |  | 142 to 144 | O=C1/C(=C/c2ccccc2)CC(/C=C/c2ccc(Cl)cc2)(C(=O)NC2CCCCC2)N1c1ccc(F)cc1 (stereo not drawn) [RPDPRO, (2E, 4E)-2-(4-chlorostyryl)-4-benzylidene-N-cyclohexyl-1-(4-fluorophenyl)-5-oxopyrrolidine-2-carboxamide] | 5.56 | 9.15 | 12.5 | 21.4 | 14.5 | 31.2 | 86.8 |  |  |  |  |  |
